Data reported in publication PMC9241695, “Selective Metal Chelation by a Thiosemicarbazone Derivative Interferes with Mitochondrial Respiration and Ribosome Biogenesis in Candida albicans” (Microbiology Spectrum, 2022).
In brackets after ≈: the same amount, converted by molar mass.

Experiments:
C. albicans SC5314 [1] = assay: qPCR of genes associated with ribosome biogenesis; type: cell-based, Candida albicans; details: CPX 0.5 or 2 μg/mL 8 h; DFO 64 µg/mL 6 h; TPEN 0.05 or 0.2 μg/mL 6 h
Method: Determination of SOD activity. SOD activity was measured using the Superoxide Dismutase Activity Assay Kit (Njjcbio, Nanjing, China) following the manufacturer's instructions. An overnight culture of C. albicans SC5314 was adjusted to 1 × 10^7 cells/mL with RPMI1640 medium and treated with 19ak at a final concentration of 0, 0.125, 0.25, 0.5, or 1 μg/mL for 6 h. After collection by centrifugation, the cells were broken by glass beads in extraction buffer and centrifuged at 4°C. The absorbance of the supernatant of each sample was measured with a microplate reader at450 nm.
Determination of catalase (CAT) activity. CAT activity was measured by using a Catalase Assay Kit (Solarbio, Beijing, China) following the manufacturer's instructions. An overnight culture of C. albicans SC5314 was adjusted to 1 × 10^6 cells/mL with RPMI1640 medium and treated as described above for SOD activity.
The decomposition of H2O2 is directly accompanied by a decrease in absorbance at 240 nm, and the difference in absorbance per unit time (ΔA240) is a measure of […]
Quantitative real-time polymerase chain reaction (qPCR) analysis. C. albicans SC5314 cells (1 × 10^6 cells/mL) were incubated with or without 19ak (0.5,2 […]
Total RNA was extracted using the hot phenol method, and the RNA quality was analyzed using a spectrophotometer (Eppendorf, Hamburg, Germany). The RNA was converted to cDNA using a cDNA Reverse
Transcription kit (Accurate Biotechnology, Hunan, China). PCR detection based on SYBR Green was performed on an Eppendorf real-time PCR system (Eppendorf, […]
Drug resistance study. Drug resistance studies were carried out by repeatedly treating C. albicans with an antifungal agent followed by MIC determination using […]

C. albicans SC5314 [2] = assay: Respiratory activity by CTC staining; type: cell-based, Candida albicans; details: 6 h, 1 mM CTC; 19ak 0.125-1 μg/mL, TPEN 0.05-0.4 μg/mL
Method: h (for C. albicans, C. krusei, C. tropicalis, C. parapsilosis) or 48 h (for C. neoformans, A. fumigatus). The MIC was determined based on visible growth inhibition compared with the control. All experiments were performed in duplicate.
Cytotoxicity testing. The cell lines HK2 and 16HBE were used to evaluate the cytotoxicity of 19ak, 19k and 19t. Cells in DMEM containing 10% fetal bovine serum (Gibco) were seeded in 96-well tissue culture plates at a cell density of 1 × 10^4 cells/mL and incubated for 24 h to allow adhesion. The supernatant was then replaced with fresh DMEM containing various concentrations of 19ak, 19k and 19t. […]
The effects of the compounds on cell proliferation were detected by measuring the absorbance at 570 nm in a microplate reader (BioTek, VT, USA). […]
the fluorescent complex […] (CTF) is commonly used to indicate the intensity of microbial respiration. C. albicans SC5314 treated with 19ak was stained with 1 mM CTC for 30 min, followed by flow cytometry analysis of respiratory activity based on fluorescence intensity. Images of cells were obtained using a fluorescence microscope (IX71, Olympus, Tokyo, Japan). […] After an additional 2 h of incubation, OD450 in each well was detected with a microplate reader. […]
Mitochondrial complex activity was expressed as nmol/min/mg protein. […]

C. albicans SC5314 [3] = assay: Antifungal susceptibility testing, microbroth dilution MIC; type: cell-based; details: Candida albicans, SC5314, read-out: MIC against C. albicans SC5314 (Fig. S2 legend)
Excerpt: Compound library. The thiosemicarbazone derivatives Triapine and COTI-2 were purchased from Med Chem Express (MCE). The other 87 thiosemicarbazones used in this study were previously synthesized by our collaborators (1, 2). Their structures are shown in Table 1 and Table S1 to help the reader clearly understand the relationship between structure and activity.
Strains and culture conditions. Clinically derived C. albicans isolates, including G5, F5, and Gu5, were kindly provided by Professor Joachim Morschhäuser of the University of Würzburg. Other clinical C. albicans isolates were kindly donated by Professor Qingguo Qi of Shandong University and Qianfoshan Hospital of Shandong Province Other Candida strains were obtained from Jinan Central Hospital.
The zap1 mutant and its complemented strain were kindly provided by Professor Aaron P. Mitchell of Carnegie Mellon University (3). The C. neoformans strains used in this study was kindly donated by Professor Guojian Liao of Southwest University and A. fumigatus strain used in this study was provided by Professor Ling Lu of Nanjing Normal University. Before in vitro and in vivo experiments, all C. albicans strains were grown on YPD agar plates. After culturing at 30°C for 24 h, colonies of each strain were cultured in liquid YPD medium at 30°C with continuous shaking […]
Antifungal susceptibility testing. To determine in vitro antifungal activities, the microbroth dilution method was carried out in RPMI1640 medium according to the guidelines of the Clinical and Laboratory Standards Institute (4, 5). The initial concentration in RPMI1640 medium was 1 × 10^3 CFU/mL for the C. albicans and C. neoformans suspensions but 1 × 10^4 CFU/mL for A. fumigatus. The range of final drug concentrations was 0.0156–64 μg/mL. The plates were incubated at35°C for 24 […]
h (for C. albicans, C. krusei, C. tropicalis, C. parapsilosis) or 48 h (for C. neoformans, A. fumigatus). The MIC was determined based on visible growth inhibition compared with the control. All experiments were performed in duplicate. […]

c1ccc(CN(CCN(Cc2ccccn2)Cc2ccccn2)Cc2ccccn2)nc1 [TPEN, N,N,N′,N′-tetrakis (2-pyridylmethyl) ethylenediamine, reference compound]
Expression of genes associated with ribosome biogenesis (qPCR) (C. albicans SC5314 [1]): downregulated
Mitochondrial respiratory activity (CTC fluorescence intensity) (C. albicans SC5314 [2]): failed to observe reduced mitochondrial respiration
MIC (C. albicans SC5314 [3]): 0.05 µg/mL (≈ 0.118 µM)
